According to patent publication EP1377579B1 (Aventis Pharmaceuticals Inc., priority 2000, dated 2002):
Structures can show the parent of a compound that is named as a salt.

Key:
[1] = biological target: cdk1/cyclin B (Homo sapiens, UniProt P06493); test: Cyclin-dependent kinase assay, cdk1/cyclin B; conditions: CDK1 IC50, nM, Histone H1, 10 µM ATP
[2] = test system: PC-3; test: In vitro proliferation assay (MTT), PC-3; assay type: cell-based, human; conditions: Homo sapiens, PC-3, MTT assay; value (SD, n) where given; read-out: PC-3 Prostate (IC50 µM)
Procedure, shortened: (§1)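 Tetrazolium (MTT) reduction measures live cells remaining after 3 days with test compound, following overnight attachment at 1000–2500 cells/well. Dye is taken up in DMSO and read at 570 nm.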

[3] = test system: MDA-MB-435; test: In vitro proliferation assay (MTT), MDA-MB-435; assay type: cell-based, human; conditions: Homo sapiens, MDA-MB-435, MTT assay; value (SD, n) where given; read-out: MB-435 Breast (IC50 µM)
Procedure, shortened: as §1

[4] = biological target: cdk2/cyclin E (Homo sapiens, UniProt P24941); test: Cyclin-dependent kinase assay, cdk2/cyclin E; conditions: CDK2 IC50, nM, GST-pRb substrate, 10 µM ATP
[5] = biological target: cdk4/cyclin D1 (Homo sapiens, UniProt P11802); test: Cyclin-dependent kinase assay, cdk4/cyclin D1; assay type: biochemical; conditions: cyclin D1/cdk4; GST-pRb substrate, 10 µM ATP
Chain of cdk4/cyclin D1 (P11802 whole entry): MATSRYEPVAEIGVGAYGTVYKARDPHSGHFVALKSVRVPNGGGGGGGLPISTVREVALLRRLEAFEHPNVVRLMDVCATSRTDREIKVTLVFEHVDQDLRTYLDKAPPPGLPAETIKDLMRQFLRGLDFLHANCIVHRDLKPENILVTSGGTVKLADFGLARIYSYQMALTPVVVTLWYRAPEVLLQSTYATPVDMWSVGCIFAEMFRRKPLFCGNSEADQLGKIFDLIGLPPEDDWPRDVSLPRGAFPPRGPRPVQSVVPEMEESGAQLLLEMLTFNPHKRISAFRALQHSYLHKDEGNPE
Chain of cdk4/cyclin D1 (P24385 whole entry partner): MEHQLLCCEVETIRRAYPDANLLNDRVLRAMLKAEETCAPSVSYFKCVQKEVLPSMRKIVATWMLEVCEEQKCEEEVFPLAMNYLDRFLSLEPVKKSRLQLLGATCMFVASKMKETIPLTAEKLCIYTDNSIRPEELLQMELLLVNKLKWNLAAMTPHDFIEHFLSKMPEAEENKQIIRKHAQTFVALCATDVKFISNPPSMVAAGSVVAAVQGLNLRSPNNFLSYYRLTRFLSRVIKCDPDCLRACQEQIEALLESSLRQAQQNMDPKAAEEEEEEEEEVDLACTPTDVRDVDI

Chain of cdk1/cyclin B (P06493 whole entry): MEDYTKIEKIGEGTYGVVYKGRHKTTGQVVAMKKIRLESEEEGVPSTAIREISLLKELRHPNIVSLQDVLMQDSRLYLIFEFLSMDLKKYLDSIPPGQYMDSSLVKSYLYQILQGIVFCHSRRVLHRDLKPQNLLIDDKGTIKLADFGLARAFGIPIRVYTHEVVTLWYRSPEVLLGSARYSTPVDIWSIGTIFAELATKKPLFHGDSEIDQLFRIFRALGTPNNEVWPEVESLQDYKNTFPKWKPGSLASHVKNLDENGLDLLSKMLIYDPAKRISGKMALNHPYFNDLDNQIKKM
Chain of cdk1/cyclin B (P14635 whole entry partner): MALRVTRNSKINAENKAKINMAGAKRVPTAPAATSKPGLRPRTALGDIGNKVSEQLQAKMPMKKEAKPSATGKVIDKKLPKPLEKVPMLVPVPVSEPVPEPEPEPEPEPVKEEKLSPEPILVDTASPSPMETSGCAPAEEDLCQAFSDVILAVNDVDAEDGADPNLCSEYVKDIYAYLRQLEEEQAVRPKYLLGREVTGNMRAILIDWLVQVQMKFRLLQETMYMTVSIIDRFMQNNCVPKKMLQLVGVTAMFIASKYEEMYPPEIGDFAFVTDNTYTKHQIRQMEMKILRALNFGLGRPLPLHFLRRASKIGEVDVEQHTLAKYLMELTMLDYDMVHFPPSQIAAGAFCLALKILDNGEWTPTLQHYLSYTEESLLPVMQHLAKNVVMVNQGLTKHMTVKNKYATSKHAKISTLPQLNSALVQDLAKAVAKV

IC50 [1] | IC50 [2] | IC50 [3] | IC50 [4] | IC50 [5] | Compound
77 nM | 0.71 µM | 0.71 µM | 85 nM | 377 nM | CCCCCNC(=O)N1CCC(Nc2nc(N[C@H]3CC[C@H](N)CC3)nc3c2ncn3C2CCCC2)CC1 [compound 184, trans-4-[2-(4-Amino-cyclohexylamino)-9-cyclopentyl-9H-purin-6-ylamino]-piperidine-1-carboxylic acid pentylamide dihydrochloride]
20 nM | 1.37 µM | 1 µM | 28 nM | 66 nM | CC(=O)c1cccc(NC(=O)N2CCC(Nc3nc(N[C@H]4CC[C@H](N)CC4)nc4c3ncn4C3CCCC3)CC2)c1 [compound 189, trans-4-[2-(4-Amino-cyclohexylamino)-9-cyclopentyl-9H-purin-6-ylamino]-piperidine-1-carboxylic acid (3-acetyl-phenyl)-amide dihydrochloride]
200 nM | 1.09 µM | 0.91 µM | 8 nM | 381 nM | N[C@H]1CC[C@H](Nc2nc(NC3CCN(C(=O)NCCc4ccccc4)CC3)c3ncn(C4CCCC4)c3n2)CC1 [compound 197, trans-4-[2-(4-Amino-cyclohexylamino)-9-cyclopentyl-9H-purin-6-ylamino]-piperidine-1-carboxylic acid phenethyl-amide dihydrochloride]
310 nM | 3.34 µM | 2.54 µM | 32 nM | 2040 nM | CC(C)NC(=O)N1CCC(Nc2nc(N[C@H]3CC[C@H](N)CC3)nc3c2ncn3C2CCCC2)CC1 [compound 157, trans-4-[2-(4-Amino-cyclohexylamino)-9-cyclopentyl-9H-purin-6-ylamino]-piperidine-1-carboxylic acid isopropylamide dihydrochloride]
50 nM | 0.68 µM | 0.44 µM | 37 nM | 10 nM | N[C@H]1CC[C@H](Nc2nc(NC3CCN(S(=O)(=O)c4ccccc4Br)CC3)c3ncn(C4CCCC4)c3n2)CC1 [compound 136, trans-N^2-(4-Amino-cyclohexyl)-9-cyclopentyl-N^6-[1-(2-bromo-benzenesulfonyl)-piperidin-4-yl]-9H-purine-2,6-diamine dihydrochloride]
36 nM | 4.56 µM | 2.76 µM | 41 nM | 75 nM | N[C@H]1CC[C@H](Nc2nc(NC3CCN(S(=O)(=O)c4ccc(Cl)c([N+](=O)[O-])c4)CC3)c3ncn(C4CCCC4)c3n2)CC1 [compound 140, trans-N^2-(4-Amino-cyclohexyl)-N^6-[1-(4-chloro-3-nitro-benzenesulfonyl)-piperidin-4-yl]-9-cyclopentyl-9H-purine-2,6-diamine dihydrochloride]
23 nM | 1.04 µM | 1.16 µM | 62 nM | 829 nM | N[C@H]1CC[C@H](Nc2nc(NC3CCN(C(=O)NC(=O)c4ccccc4)CC3)c3ncn(C4CCCC4)c3n2)CC1 [compound 172, trans-N-(1-{4-[2-(4-Amino-cyclohexylamino)-9-cyclopentyl-9H-purin-6-ylamino]-piperidin-1-yl}-methanoyl)-benzamide dihydrochloride]
17 nM | 0.38 µM | 0.3 µM | 42 nM | 753 nM | N[C@H]1CC[C@H](Nc2nc(NC3CCN(C(=O)Nc4cccc(F)c4)CC3)c3ncn(C4CCCC4)c3n2)CC1 [compound 152, trans-4-[2-(4-Amino-cyclohexylamino)-9-cyclopentyl-9H-purin-6-ylamino]-piperidine-1-carboxylic acid (3-fluoro-phenyl)-amide dihydrochloride]
40 nM | 1.16 µM | 0.54 µM | 60 nM | 69 nM | N[C@H]1CC[C@H](Nc2nc(NC3CCN(S(=O)(=O)c4ccc(Cl)c(Cl)c4)CC3)c3ncn(C4CCCC4)c3n2)CC1 [compound 138, trans-N^2-(4-Amino-cyclohexyl)-9-cyclopentyl-N^6-[1-(3,4-dichloro-benzenesulfonyl)-piperidin-4-yl]-9H-purine-2,6-diamine dihydrochloride]

The remaining lines, values behind:

Compound | IC50 [1] | IC50 [2] | IC50 [3] | IC50 [4] | IC50 [5]
N[C@H]1CC[C@H](Nc2nc(NC3CCN(S(=O)(=O)c4ccc(C(=O)O)cc4)CC3)c3ncn(C4CCCC4)c3n2)CC1 [compound 126, trans-4-{4-[2-(4-Amino-cyclohexylamino)-9-cyclopentyl-9H-purin-6-ylamino]-piperidine-1-sulfonyl}-benzoic acid dihydrochloride] | 20 nM | 16.8 µM | 19.7 µM | 6 nM | 55 nM
Cc1ccccc1C(=O)N1CCC(Nc2nc(N[C@H]3CC[C@H](N)CC3)nc3c2ncn3C2CCCC2)CC1 [compound 70, trans-1-{4-[2-(4-Amino-cyclohexylamino)-9-cyclopentyl-9H-purin-6-ylamino]-piperidin-1-yl}-1-(2-methyl-phenyl)-methanone] | 277 nM | 4.4 µM | 4.6 µM | 430 nM | 4510 nM
N[C@H]1CC[C@H](Nc2nc(NC3CCN(C(=O)c4cccc5c4-c4ccccc4C5=O)CC3)c3ncn(C4CCCC4)c3n2)CC1 [compound 66, trans-4-(1-{4-[2-(4-Amino-cyclohexylamino)-9-cyclopentyl-9H-purin-6-ylamino]-piperidin-1-yl}-methanoyl)-fluoren-9-one] | 234 nM | 1.93 µM | 1.66 µM | 325 nM | 1720 nM
CC(C)(C)CC(=O)N1CCC(Nc2nc(N[C@H]3CC[C@H](N)CC3)nc3c2ncn3C2CCCC2)CC1 [compound 51, trans-1-{4-[2-(4-Amino-cyclohexylamino)-9-cyclopentyl-9H-purin-6-ylamino]-piperidin-1-yl}-3,3-dimethyl-butan-1-one dihydrochloride] | 109 nM | 0.5 µM | 0.42 µM | 65 nM | 99 nM
C[C@H](O)C(=O)N1CCC(Nc2nc(N[C@H]3CC[C@H](N)CC3)nc3c2ncn3C2CCCC2)CC1 [compound 47, trans-(S)-1-{4-[2-(4-Amino-cyclohexylamino)-9-cyclopentyl-9H-purin-6-ylamino]-piperidin-1-yl}-2-hydroxy-propan-1-one dihydrochloride] | 36 nM | 1.8 µM | 1.99 µM | 14 nM | 361 nM
N[C@H]1CC[C@H](Nc2nc(NC3CCN(C(=O)c4ccc(Br)cc4)CC3)c3ncn(C4CCCC4)c3n2)CC1 [compound 74, trans-1-{4-[2-(4-Amino-cyclohexylamino)-9-cyclopentyl-9H-purin-6-ylamino]-piperidin-1-yl}-1-(4-bromo-phenyl)-methanone] | 62 nM | 1.25 µM | 1.07 µM | 239 nM | 560 nM
CC(C)S(=O)(=O)N1CCC(Nc2nc(N[C@H]3CC[C@H](N)CC3)nc3c2ncn3C2CCCC2)CC1 [compound 125, trans-N^2-(4-Amino-cyclohexyl)-9-cyclopentyl-N^6-[1-(propane-2-sulfonyl)-piperidin-4-yl]-9H-purine-2,6-diamine dihydrochloride] | 180 nM | 1.29 µM | 1.03 µM | 38 nM | 62 nM
COc1cc(OC)cc(C(=O)N2CCC(Nc3nc(N[C@H]4CC[C@H](N)CC4)nc4c3ncn4C3CCCC3)CC2)c1 [compound 17, trans-1-{4-[2-(4-Amino-cyclohexylamino)-9-cyclopentyl-9H-purin-6-ylamino]-piperidin-1-yl}-1-(3,5-dimethoxy-phenyl)-methanone] | 89 nM | 1.82 µM | 2.22 µM | 189 nM | 467 nM
CCCC(=O)N1CCC(Nc2nc(N[C@H]3CC[C@H](N)CC3)nc3c2ncn3C2CCCC2)CC1 [compound 58, trans-1-{4-[2-(4-Amino-cyclohexylamino)-9-cyclopentyl-9H-purin-6-ylamino]-piperidin-1-yl}-butan-1-one dihydrochloride] | 52 nM | 0.94 µM | 1.01 µM | 68 nM | 357 nM
N[C@H]1CC[C@H](Nc2nc(NC3CCN(S(=O)(=O)c4cccc([N+](=O)[O-])c4)CC3)c3ncn(C4CCCC4)c3n2)CC1 [compound 127, trans-N^2-(4-Amino-cyclohexyl)-9-cyclopentyl-N^6-[1-(3-nitro-benzenesulfonyl)-piperidin-4-yl]-9H-purine-2,6-diamine dihydrochloride] | 14 nM | 0.62 µM | 0.61 µM | 17 nM | 48 nM
N[C@H]1CC[C@H](Nc2nc(NC3CCN(C(=O)c4ccncc4)CC3)c3ncn(C4CCCC4)c3n2)CC1 [compound 68, trans-1-{4-[2-(4-Amino-cyclohexylamino)-9-cyclopentyl-9H-purin-6-ylamino]-piperidin-1-yl}-1-pyridin-4-yl-methanone] | 136 nM | 16 µM | 21 µM | 84 nM | 1440 nM
N[C@H]1CC[C@H](Nc2nc(NC3CCN(C(=O)Cc4cccs4)CC3)c3ncn(C4CCCC4)c3n2)CC1 [compound 61, trans-1-{4-[2-(4-Amino-cyclohexylamino)-9-cyclopentyl-9H-purin-6-ylamino]-piperidin-1-yl}-2-thiophen-2-yl-ethanone dihydrochloride] | 40 nM | 0.58 µM | 0.61 µM | 38 nM | 750 nM
